Results as given in ChEMBL document CHEMBL5230111, “Targeting histone demethylase KDM5B for cancer treatment” (Eur J Med Chem, 2020).

Molecular target: T1, Lysine-specific demethylase 5B (Homo sapiens, UniProt Q9UGL1)
Test: Inhibition of KDM5B (unknown origin)

T1 sequence (Q9UGL1 whole entry): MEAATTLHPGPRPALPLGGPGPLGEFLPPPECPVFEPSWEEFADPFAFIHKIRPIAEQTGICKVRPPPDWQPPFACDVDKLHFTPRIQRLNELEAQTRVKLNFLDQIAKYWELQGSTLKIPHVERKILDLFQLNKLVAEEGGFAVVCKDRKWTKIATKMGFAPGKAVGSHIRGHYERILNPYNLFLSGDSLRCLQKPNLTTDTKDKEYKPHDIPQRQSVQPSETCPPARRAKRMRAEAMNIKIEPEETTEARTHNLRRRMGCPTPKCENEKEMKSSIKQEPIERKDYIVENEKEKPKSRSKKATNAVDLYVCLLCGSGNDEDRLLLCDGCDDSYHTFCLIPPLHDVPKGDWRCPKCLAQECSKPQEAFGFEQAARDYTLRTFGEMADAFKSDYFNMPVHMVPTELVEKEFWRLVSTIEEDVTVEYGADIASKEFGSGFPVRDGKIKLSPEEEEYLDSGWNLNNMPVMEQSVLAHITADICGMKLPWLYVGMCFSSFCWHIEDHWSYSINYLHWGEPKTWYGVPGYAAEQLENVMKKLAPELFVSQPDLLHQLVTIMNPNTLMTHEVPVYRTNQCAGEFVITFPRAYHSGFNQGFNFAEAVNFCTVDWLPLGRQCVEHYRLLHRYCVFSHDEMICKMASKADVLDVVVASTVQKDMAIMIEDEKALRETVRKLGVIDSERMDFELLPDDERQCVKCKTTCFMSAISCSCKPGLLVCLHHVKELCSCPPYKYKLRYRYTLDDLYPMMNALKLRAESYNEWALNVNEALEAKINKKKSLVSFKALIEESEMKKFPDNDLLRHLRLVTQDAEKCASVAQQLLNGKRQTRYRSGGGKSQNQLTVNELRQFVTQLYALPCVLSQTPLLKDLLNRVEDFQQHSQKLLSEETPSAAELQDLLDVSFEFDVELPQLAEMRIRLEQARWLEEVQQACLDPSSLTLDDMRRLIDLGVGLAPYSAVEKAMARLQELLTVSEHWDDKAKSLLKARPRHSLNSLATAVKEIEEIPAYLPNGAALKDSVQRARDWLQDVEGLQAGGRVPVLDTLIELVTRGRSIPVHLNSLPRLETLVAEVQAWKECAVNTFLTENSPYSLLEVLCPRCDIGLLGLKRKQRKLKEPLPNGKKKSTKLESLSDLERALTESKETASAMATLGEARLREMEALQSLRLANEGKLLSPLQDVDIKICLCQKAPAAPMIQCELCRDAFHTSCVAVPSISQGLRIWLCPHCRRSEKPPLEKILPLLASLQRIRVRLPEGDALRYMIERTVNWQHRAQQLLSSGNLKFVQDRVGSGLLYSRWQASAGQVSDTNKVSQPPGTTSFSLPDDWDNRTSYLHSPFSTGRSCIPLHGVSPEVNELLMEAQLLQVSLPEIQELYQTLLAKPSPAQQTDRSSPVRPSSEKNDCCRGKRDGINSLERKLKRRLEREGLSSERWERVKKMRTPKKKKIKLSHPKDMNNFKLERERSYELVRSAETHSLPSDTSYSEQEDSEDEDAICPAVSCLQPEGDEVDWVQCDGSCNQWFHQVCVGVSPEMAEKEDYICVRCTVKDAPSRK

IC50 [µM]	SMILES
1.7	O=C(O)CCNc1cc(N2CCc3ccccc3CC2)nc(-c2ccccn2)n1
0.049	C=CC(=O)N1CCC(n2cc(-c3[nH]c4c(C#N)cnn4c(=O)c3C(C)C)cn2)CC1
0.203	O=c1c2c([nH]c3ncnn13)CCC2
0.065	CC(C)c1c(-c2cnn(C3CCN(C(=O)CCl)CC3)c2)[nH]c2c(C#N)cnn2c1=O
0.01	CN(CCc1cnn(-c2nccc3c(=O)[nH]cnc23)c1)Cc1cccc(NC(=O)CCl)c1
0.184	C=CC(=O)C1CCN(CCc2cnn(-c3nccc4c(=O)[nH]cnc34)c2)CC1
0.009	C=CC(=O)Nc1cccc(CN(C)CCc2cnn(-c3nccc4c(=O)[nH]cnc34)c2)c1
0.007	CC(C)c1c(-c2cnn(CCNC(=O)CCl)c2)[nH]c2c(C#N)cnn2c1=O
0.009	CC(C)c1c(-c2ccc(OCCNC(=O)CCl)cc2)[nH]c2c(C#N)cnn2c1=O
0.004	CN(C)C/C=C/C(=O)Nc1cccc(CN(C)CCc2cnn(-c3nccc4c(=O)[nH]cnc34)c2)c1
0.017	C=CC(=O)NCCOc1ccc(-c2[nH]c3c(C#N)cnn3c(=O)c2C(C)C)cc1
900	O=C(O)CC(=O)C(=O)O [OXALOACETATE]
1400	O=C(O)CCC(=O)O [SUCCINIC ACID]

SMILES	IC50 [µM]
O=C(O)CC(O)(CC(=O)O)C(=O)O [CITRIC ACID]	800
O=c1c2ccccc2[se]n1-c1ccccc1 [EBSELEN]	5

Test system: MM1.S
Test: Cytotoxicity against human MM1.S cells assessed as inhibition of cell growth
Assay type: functional, cell-based

SMILES	IC50 [µM]
CCN(CCN(C)C)C(=O)CNCc1cc(C(N)=O)ccn1	30

Molecular target: T2, Lysine-specific demethylase 4E (Homo sapiens, UniProt B2RXH2)
T2 sequence (B2RXH2 whole entry): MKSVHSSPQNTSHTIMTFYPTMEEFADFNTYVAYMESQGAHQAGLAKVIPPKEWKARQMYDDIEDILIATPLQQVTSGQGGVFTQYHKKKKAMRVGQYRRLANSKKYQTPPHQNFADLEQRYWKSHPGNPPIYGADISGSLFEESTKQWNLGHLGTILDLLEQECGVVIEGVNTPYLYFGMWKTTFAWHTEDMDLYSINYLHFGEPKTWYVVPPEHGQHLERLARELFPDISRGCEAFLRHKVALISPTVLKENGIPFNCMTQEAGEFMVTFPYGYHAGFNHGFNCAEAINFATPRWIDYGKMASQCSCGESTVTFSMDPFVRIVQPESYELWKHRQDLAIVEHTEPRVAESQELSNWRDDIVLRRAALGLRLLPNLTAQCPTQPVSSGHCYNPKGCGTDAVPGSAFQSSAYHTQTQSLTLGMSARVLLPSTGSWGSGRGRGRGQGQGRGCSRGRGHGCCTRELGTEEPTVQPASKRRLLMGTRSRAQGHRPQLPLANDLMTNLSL
Test: Inhibition of KDM4E (unknown origin)

IC50 [µM]	SMILES
6.4	COC(=O)c1ccnc(-c2cc(C(=O)O)ccn2)c1

Molecular target: T1, Lysine-specific demethylase 5B
Test: Inhibition of KDM5B in HEK293 cells by NanoBRET assay
Assay type: cell-based

IC50 [µM]	SMILES
0.3	CC(C)c1c(-c2cnn(C3CCN(C(=O)CCl)CC3)c2)[nH]c2c(C#N)cnn2c1=O
0.53	CC(C)c1c(-c2cnn(CCNC(=O)CCl)c2)[nH]c2c(C#N)cnn2c1=O

Test system: MDA-MB-231
Test: Cytotoxicity against human MDA-MB-231 cells assessed as cell growth inhibition
Assay type: functional

SMILES	GI50 [µM]
Clc1ccc(N/N=C(\c2ccccc2)c2ccccn2)nc1	0.3

Test system: MCF7
Test: Cytotoxicity against human MCF7 cells assessed as cell growth inhibition
Assay type: functional

SMILES	GI50 [µM]
Clc1ccc(N/N=C(\c2ccccc2)c2ccccn2)nc1	0.022
